We go through one molecule from ChEMBL document CHEMBL1127586, “Central cholinergic agents. 6. Synthesis and evaluation of 3-[1-(phenylmethyl)-4-piperidinyl]-1-(2,3,4,5-tetrahydro-1H-1-benzazepi n-8-yl)-1-propanones and their analogs as central selective acetylcholinesterase inhibitors” (J Med Chem, 1994).

Where “and” joins values, the source holds several entries; their conditions need not be identical. Equal entries are not always repeated.

The subject of data set [1] is Rattus norvegicus. Nature of the data set: Peripheral cholinergic effects in male wistar rats when administered orally at a dose of 10 mg/Kg. The format is functional, organism-based.
In data set [2] the test system is Rattus norvegicus. Nature of the data set: Peripheral cholinergic effects in male wistar rats when administered orally at a dose of 3 mg/Kg. The format is functional, organism-based.
The test system of data set [3] is Rattus norvegicus. Nature of the data set: Effect of compound on peripheral cholinergic effects in male wistar rats when administered orally at a dose of 30 mg/Kg; fasciculation, lacrimation. The format is functional, organism-based.
The species named for data set [4] is Rattus norvegicus. Nature of the data set: Inhibition of circling behavior, percentage of control was reported; (p<0.05). The data set is classed as functional. Set-up: scale not given: the % may be the effect or the level left.
Data set [5] can be described thus: Acute toxicity in rat by peroral administration. The format is organism-based. The note with it: in vivo, po.
Data set [6] has as its system Rattus norvegicus. Nature of the data set: Number of circlings observed for 30 min at 1 mg/kg orally administered dose in rats. The data set is classed as functional. The note with it: route oral.
The test system of data set [7] is Rattus norvegicus. Put plainly: Number of circlings observed for 30 min at 3 mg/kg orally administered dose in rats. The format is functional. The note with it: route oral.
The nature of data set [8]: ED50/MED ratio. The data set is classed as functional.
Data set [9] in a line: LD50/MED ratio. The format is ADME. Conditions: read-out: Therapeutic index.
A further data set addresses T1, Acetylcholinesterase (Rattus norvegicus, UniProt P37136).
T1 sequence (P37136 whole entry): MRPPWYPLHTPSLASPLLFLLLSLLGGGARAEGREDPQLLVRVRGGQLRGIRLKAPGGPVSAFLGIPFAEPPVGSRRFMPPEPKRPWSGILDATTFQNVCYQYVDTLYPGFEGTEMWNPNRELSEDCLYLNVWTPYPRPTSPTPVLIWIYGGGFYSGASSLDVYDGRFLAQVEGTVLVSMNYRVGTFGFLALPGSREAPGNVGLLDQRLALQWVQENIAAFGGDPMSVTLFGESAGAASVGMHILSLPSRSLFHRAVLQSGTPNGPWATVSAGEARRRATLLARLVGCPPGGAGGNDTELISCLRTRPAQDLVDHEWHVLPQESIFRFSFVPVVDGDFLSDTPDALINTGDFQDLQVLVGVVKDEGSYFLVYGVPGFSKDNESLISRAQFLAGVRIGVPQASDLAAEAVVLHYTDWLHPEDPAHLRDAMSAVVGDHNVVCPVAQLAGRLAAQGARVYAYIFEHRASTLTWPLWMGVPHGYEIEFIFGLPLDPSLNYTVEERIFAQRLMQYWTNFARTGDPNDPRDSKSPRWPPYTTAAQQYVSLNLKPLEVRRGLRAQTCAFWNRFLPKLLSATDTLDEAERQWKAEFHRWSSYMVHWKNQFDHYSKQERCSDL

Data set [10] is filed under the species Rattus norvegicus.
Description: Ameliorating effects on diazepam-induced memory impairment of passive avoidance response (no of rats) by peroral administration
The species named for data set [11] is Rattus norvegicus. Put plainly: animal or person. The note with it: read-out: MED.
Description: Ameliorating effects on diazepam-induced memory impairment of passive avoidance response (no of rats)
For data set [12], the species on record is Rattus norvegicus. Nature of the data set: animal or person. Conditions: po.
Description: Tested for effective inhibition by peroral administration

Description for Acetylcholinesterase: Inhibition of acetylcholinesterase (AChE)

Usually LD50 stands for the dose expected to kill half of the subjects tested. For orientation: IC50 means the concentration that inhibits the measured activity by half. Broadly, the ED50 is the dose at which the effect has come halfway, by size or by number of responders. With `O=C(CCC1CCN(Cc2ccccc2)CC1)c1ccc2c(c1)NCCCC2` [ZANAPEZIL], the Activity entry in the data set on Rattus norvegicus [1] was “Fasciculation”; with Rattus norvegicus [2], “No activity”; with Rattus norvegicus [3], “Fasciculation, Lacrimation”. Further, the Control in the data set filed under Rattus norvegicus [4] is on record as 69.9%. The LD50 in data set [5] amounted to 334 mg/kg. Also, the results for the No. of circlings in the data set on Rattus norvegicus [6] and with Rattus norvegicus [7] were 87.5 and 75.1, respectively. In data set [8], the Central selectivity worked out at 10.2. Moreover, the selectivity ratio in data set [9] stood at 334. Inhibition at Acetylcholinesterase was half-maximal at 97.7 nM (IC50). Also, in the data set filed under Rattus norvegicus [10], the Avoidance time is 106.6 s and 192.2 s and 193.2 s. For the same molecule, in the data set filed under Rattus norvegicus [11], the minimal effective dose was 1 mg/kg. The ED50 in the data set filed under Rattus norvegicus [12] is 10.2 mg/kg.
